Assay results from patent US12324800B2 (priority 2019, dated 2025).

How the values were obtained:
[1] = set-up: key to Phase preferences, Physiological conditions: L, Lamellar; HII, hexagonal; M, micellar; settings: liquid crystalline unsaturated lipids, cited from earlier work; for Phase preferences, Other conditions: conditions given in the cell
[2] = Rancimat accelerated oxidation test; assay type: physicochemical
Experimental: To investigate this, accelerated oxidation tests of cannabis oil in the labile soybean oil with and without additional antioxidants were conducted. The Rancimat (Metrohm MG, Herisau, Switzerland) test was used for this purpose as follows. 2 g of oil were placed in a narrow glass flask, heated to 110° C. and air was bubbled through the oil at 20 ml/min. This caused accelerated oxidation. As the liquid oxidized, volatile secondary oxidation products were volatilized and bubbled into room temperature water. This caused them to dissolve in the water, which results in an increase in its electrical conductivity. The conductivity is measured continuously using a standard electrode.

[3] = THC degradation on heating of cannabis oil films (gas-liquid chromatography); settings: dry films with 14 mg cannabis oil, 1.5 hours at 100° C.
Experimental: Five 1 ml chromatography glass vials were used for this purpose. […] Stock solutions of 0.5% sunflower lecithin (Sunlec25), 0.01% TBHQ and 0.5% lecithin+0.01% TBHQ were prepared.
The chloroform was evaporated under a stream of air until completely dry. […] After the heating period, samples were removed from the oven, allowed to cool to room temperature and then 1 ml of fresh chloroform was added to each vial and capped. Samples were then analyzed by gas-liquid chromatography as described previously. […] A 15 m×0.25 mm internal diameter fused silica column with a 0.20 μm DB5 film thickness was used (Agilent Inc., USA). The oven temperature was maintained at 80° C. for 5 minutes and then programmed to increase from 80 to 300° C. at 12° C./min. […] Split ratio was set at 10:1. Helium, the earlier gas, flowed at an average velocity of 25 cm/s. A flame ionization detector was set at 350° C. with 450 mL/min air and 50 mL/min helium flowing. The separated peaks were analyzed using Open LAB software (Agilent Technologies). The amount of cannabinoid was determined by comparing retention times of the peaks to an internal standard. Tor this analysis, the main THC peak was analyzed.

| Compound | Phase preferences, Physiological conditions [1] | Phase preferences, Other conditions [1] | further results |
| --- | --- | --- | --- |
| Phosphatidic acid | L | HII, divalent cations, |  |
| Digalactosyldiglyceride | L |  |  |
| Phosphatidylglycerol | L | HII, high temp, high salt conc. |  |
| CC(C)(C)c1cc(O)ccc1O [TBHQ, tert-butylhydroquinone] |  |  | increase of induction time ([2]; 0.01% TBHQ added to soybean oil alone): 7.1 h; induction time of oxidation ([2]; 0.01% TBHQ added to soybean oil containing 4.8 mg/g cannabis oil): 15.7 h; induction time of oxidation ([2]; 0.01% TBHQ added to soybean oil containing 0.5% sunflower lecithin and 4.8 mg/g cannabis oil): 28.8 h; increase of induction time of oxidation for every 100 ppm TBHQ added ([2]; soybean oil, 110° C.): 7.1 to 7.2 h |
| Diglucosyldiglyceride | L |  |  |
| Cardiolipin | L | HII, divalent cations, |  |
| CCCCCc1cc(O)c2c(c1)OC(C)(C)[C@@H]1CCC(C)=C[C@@H]21 [THC, tetrahydrocannabinol] |  |  | degradation of THC on heating [3]: significant degradation |
| Cerebroside | L |  |  |
| Phosphatidylethanolamine | HII | L, pH ≥ 8.5 low temp |  |
| Phosphatidylinositol | L |  |  |
| Lysophosphatidylcholine | M |  |  |
| Phosphatidylcholine | L | HII low hydration and high |  |
| CC(C)CCC[C@@H](C)[C@H]1CC[C@H]2[C@@H]3CC=C4C[C@@H](O)CC[C@]4(C)[C@H]3CC[C@]12C [Cholesterol, cholesterol, reference compound] |  | Induces HII phase in mixed |  |
| Monogalactosyldiglyceride | HII |  |  |
| Sphingomyelin | L |  |  |
| Phosphatidylserine | L | HII, pH ≤ 3.5 |  |
| Cerebroside sulfate | L |  |  |
| Ganglioside | M |  |  |
| Monoglucosyldiglyceride | HII |  |  |
